Laboratory results: PubChem BioAssay (NCI)
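A five-concentration, 48-hour dose response in 96-well plates underlies each endpoint, interpolated linearly between surrounding concentrations. Definition used: TGI = concentration required for complete inhibition of growth.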

How the values were obtained:
Assay in all cases: NCI-60 cell line screen, 48 h
HL-60(TB) leukemia = test system: HL-60(TB) leukemia
T-47D breast = test system: T-47D breast
ACHN renal = test system: ACHN renal
OVCAR-5 ovarian = test system: OVCAR-5 ovarian
SF-539 CNS = test system: SF-539 CNS
LOX IMVI melanoma = test system: LOX IMVI melanoma
MOLT-4 leukemia = test system: MOLT-4 leukemia
U251 CNS = test system: U251 CNS
NCI-H226 lung = test system: NCI-H226 lung
NCI-H23 lung = test system: NCI-H23 lung

Structure (SMILES)	TGI (HL-60(TB) leukemia) [µM]	TGI (T-47D breast) [µM]	TGI (ACHN renal) [µM]	TGI (OVCAR-5 ovarian) [µM]	TGI (SF-539 CNS) [µM]	TGI (LOX IMVI melanoma) [µM]	TGI (MOLT-4 leukemia) [µM]	TGI (U251 CNS) [µM]	TGI (NCI-H226 lung) [µM]	TGI (NCI-H23 lung) [µM]
CSc1ccc(/C=C2\N=C(c3ccccc3)N(c3nc4cc(C)c(C)cc4s3)C2=O)cc1	86.3	> 100	58.6	67.9	40.9	44.7	> 100	36.5	–	–
CC(C)Cc1cc2c(cc1O)CCC1C2CC[C@@]2(C)C1CC[C@@H]2O (stereo partly specified)	8	23.4	20	34.2	40.6	18.2	17.2	27	14.2	26.4
O=C(C/C(=N/O)c1cc(-c2ccccc2)no1)c1ccccc1	74.6	> 100	> 100	> 100	35	> 100	> 100	60.5	56.7	43.3
C=C(CN1CC2C[C@](C(=O)OC)(c3cc4ccccc4[nH]3)C1C(OC)C2OC)S(=O)(=O)c1ccccc1 (stereo partly specified)	5.12	28.2	9.24	13.1	16.9	3.54	2.83	8.52	18.8	9.31
O=C(O)CCCc1ccc2ccccc2c1	> 100	> 100	> 100	> 100	> 100	> 100	> 100	> 100	–	> 100
O=C(CCCl)NNC1=NCCCN1	> 100	> 100	> 100	> 100	> 100	> 100	> 100	> 100	> 100	> 100
CN1CCC2(CC1)C(=NC1CCCCC1)NC(=S)N2c1ccccc1	> 100	> 100	> 100	> 100	> 100	> 100	> 100	> 100	> 100	> 100
CCN(CC)CCNc1ccc2nnn3c4ccc(O)cc4c(=O)c1c23	25.1	39.7	14.2	22.4	18.4	4.05	4.76	18.2	14.7	19.7
COc1ccc2nc3ccc(OC)cc3c(SCc3ccccc3)c2c1	> 100	> 100	> 100	> 100	> 100	> 100	> 83.2	> 100	> 100	> 100
O=C(CSc1nc2ccc(I)cc2c(=O)n1Cc1ccccc1)NNC(=O)c1ccccc1	> 100	30.5	75.4	40.5	8.11	> 100	23.5	> 100	15.5	68.8
C[C@@H](NC(=O)c1ccc(CNC(=O)/C=C/c2cccc(Oc3ccccc3)c2)cc1)c1ccccc1	> 100	> 100	36	> 100	30.6	> 100	> 100	> 100	> 73.5	> 100
O=C(c1ccc(Cl)cc1)N(C(=S)OCc1ccccn1)c1ccccc1	> 100	93.5	> 100	> 100	> 100	> 100	> 100	> 100	> 100	> 100
O=C(NCCNCCCNC(=O)c1cc(-c2ccccc2)nc2ccccc12)c1cccc(OCc2ccccc2)c1OCc1ccccc1	3.19	4.2	3.11	3.37	3.19	2.95	3.51	–	3.35	3.35
CCOC(=O)C(=O)/C(=C/N1C(=O)CC(=O)NC1=S)C(=O)OCC	> 100	> 100	> 100	> 100	> 100	> 100	> 100	> 100	> 100	> 100
O=C1C=C(OCCCCl)C(=O)c2c(O)ccc(O)c21	3.03	4.63	2.96	2.85	2.76	0.659	6.06	3.56	3.7	0.479
